Assay results: patent publication US7056491B2, “Monoterpenes and sesquiterpenes as chemotherapeutic and radiation sensitizers and immunomodulators” (Wisconsin Alumni Research Foundation, priority 2000, dated 2006)
Read-outs that look alike come from different tables or passages of the source.

Experiments:
T98G cells = test: Clonogenic survival assay, POH with or without radiation, T98G; type: cell-based, human
Description: Cell Line: The T98G cell line was derived from a resection specimen obtained from a patient with glioblastoma multiforme. T98G cells express endogenous mutant p53 and introduction of wild-type p53 sensitizes these cells to radiation. The radioresistance of this cell line has also been attributed to the presence of high intracellular levels of GSH, which down-regulates NFκB binding activity after exposure to ionizing radiation. A clonogenic survival assay was used to assess the response to treatment in vitro, as it is a measure of reproductive capacity.
Clonogenic Survival Assays: The T98G cell line was obtained from ATCC and maintained in DMEM-F12 medium containing 10% fetal bovine serum, 1% penicillin, streptomycin and 1 mM non-essential amino acids in a humidified incubator at 37° C. Stock solution of POH was made in the medium. One set of plates was treated with graded doses of POH (0.1 mM to 1 mM) for a period of 72 hours. Control dishes were treated with medium alone. All cells were irradiated at a dose rate of 7.5Gy/min using a CS-137 irradiator with single doses ranging from 1 Gy to 8.5Gy. The range of radiation doses used encompasses that used to treat patients.
Following irradiation, both POH treated and untreated cells were harvested by trypsinization and washed with PBS. Cells were incubated for two weeks after initial plating, fixed with methanol, stained with crystal violet and the number of colonies per dish quantitated. Survival was determined as the ratio of plating efficiencies for each irradiated group to that of the unirradiated control.
(§1) Subconfluent cultures of human glioma cell line T98G were treated with 0.1–0.5 mM of Perillyl Alcohol for 72 hours and subsequently to increasing doses of radiation from 0.1 Gy to 8.5 Gy. Control cells were treated with medium alone. The cells were harvested and an optimum number of cells were allowed to grow for 14 days. The resulting colonies were stained and counted. Each graphed point represents mean values ± SE values of triplicate dishes.
(§2) Table 1 summarizing data from different cell lines treated with radiation, radiation plus POH, and POH alone. Subconfluent cultures of human glioma (T98G, M059K, U251), prostate (DU145, PC3), colon (DLD-1, HT29) and pancreatic (MIAPACA) cancer cell lines were treated with 0.1–0.5 mM of POH for 72 hours and subsequently to increasing doses of radiation from 0.1 Gy to 8.5 Gy. Control cells were treated with medium alone. The cells were harvested and an optimum number of cells were allowed to grow for 14 days. The resulting colonies were stained and counted. Each graphed point represents mean values ± SE values of triplicate dishes. Percentage survival was determined as the ratio of plating efficiencies for each irradiated group to that of the unirradiated control.

U251 cells = test: Clonogenic survival assay, POH with or without radiation, U251; type: cell-based, human
Method: as §1, with “U251” for “T98G”, “POH” for “Perillyl Alcohol”, “the indicated doses of radiation” for “medium”
as §2

DLD-1 colon cancer cells = test: Clonogenic survival assay, POH with or without radiation, DLD-1; type: cell-based, human
Method: as §2

Fas receptor = Fas receptor (CD95) staining by flow cytometry; type: cell-based, human; conditions: 0.1 mM–1 mM POH 72 hours; same cell lines except U87MG
Method: The cells were harvested using cell dissociation solution, and the resulting cell pellet was washed and incubated with biotinylated anti-human antibody, which served as a control to eliminate non-specific binding. Following the primary antibody incubation the cells were washed and subsequently stained with secondary antibody conjugated to phycoerythrin (PE) (PharMingen) and antibody to CD95 directly conjugated to allophycocyanin (APC). The stained cells were analyzed using a Beckton-Dickinson FACStar plus and the results were acquired using CELLquest software.
Subconfluent cultures of the indicated glioma (T98G, U251, U353, U87MG), prostate (DU145, PC3), colon (DLD-1) and melanoma (Mel5) cell lines were treated with varying concentrations of POH (0.1 mM–1 mM POH) dissolved in medium for 72 hours. At the end of the incubation, the cells were harvested using cell dissociation solution, and the resulting cell pellet was washed and incubated with biotinylated anti-human antibody to the FasL (PharMingen) or with an isotype matched anti-human antibody, which served as a control to eliminate non-specific binding. […] The stained cells were analyzed using a Beckton-Dickinson FACStar plus and the results were acquired using CELLquest. […]

[1] = test system: glioma and prostate cancer cell lines; test: Augmentation of CD95 (Fas)-mediated apoptosis with anti-CD95 antibody CH11; type: cell-based; conditions: T98G, U87, U353, U251; 1 mM POH with CH11, absence of cycloheximide
Method: Referring to FIG. 25, semiconfluent cultures of glioma and prostate cancel cell lines were treated with the 1 mM POH in the presence or absence of the anti-CD95 antibody CH11 (100 ng/ml), radiation (8.5 Gy for T98G, U87MG, U373 and 5.5 Gy for PC3 and DU145), cycloheximide (CX) or a combination of all for a period of 72 hours. Cells treated with cycloheximide and anti-Fas served as a positive control. The death by treating cells with 1 mM POH or radiation alone was also quantitated. The estimation of apoptosis was done by staining the harvested cells with propidium iodide as described before. Each graphed point in the figure represents the average values of duplicate samples.

[2] = test system: Fas-sensitive Jurkat cell line; test: Cell death of Jurkat cells incubated with POH-treated T98G; type: cell-based; conditions: T98G treated 0.1 mM–0.5 mM 48 hours, then Jurkat 48 hours
Method: Referring to FIG. 27, subconfluent cells of T98G cells were treated with varying concentrations of perillyl alcohol (0.1 mM–0.5 mM) for 48 hours. At the end of the incubation the media was changed, cells from a Fas-sensitive Jurkat cell line were added to the plate, and the incubation was continued further for 48 hours. At the end of the incubation the target cells (Jurkat) were harvested, washed and the cell viability was assessed.

rat mammary carcinoma = conditions: cited from earlier work; for regression of rat mammary carcinoma: dietary administration
[3] = rats, 2% POH diet for 10 weeks; cited from earlier work

For `C=C(C)[C@@H]1CC=C(CO)CC1` [POH, Perillyl alcohol], the “concentration with the most pronounced radiosensitization” value (T98G cells) was 0.5 mM, the “lowest concentration at which radiosensitization was observed” value (T98G cells) was 0.1 mM and the “% SURVIVAL” value (T98G cells; 0.1 mM POH 72 h, no radiation) was 0.755 ± 0.016%. The “% SURVIVAL” value (T98G cells; 0.1 mM POH + 5.5 Gy) was 0.130 ± 0.002%, the “% SURVIVAL” value (T98G cells; 0.3 mM POH 72 h, no radiation) was 0.660 ± 0.024% and the “% SURVIVAL” value (T98G cells; 0.3 mM POH + 5.5 Gy) was 0.066 ± 0.004%. For the same compound, the “% SURVIVAL” value (T98G cells; 0.5 mM POH 72 h, no radiation) was 0.500 ± 0.006%, the “% SURVIVAL” value (T98G cells; 0.5 mM POH + 5.5 Gy) was 0.037 ± 0.014% and the “sensitization to radiation induced cell death” value (T98G cells; pretreatment before and during irradiation) was “dose dependent sensitization”. For the same compound, the “% SURVIVAL” value (U251 cells; 0.1 mM POH 72 h, no radiation) was 1.066 ± 0.200%, the “% SURVIVAL” value (U251 cells; 0.1 mM POH + 5.5 Gy) was 0.253 ± 0.004% and the “% SURVIVAL” value (U251 cells; 0.3 mM POH 72 h, no radiation) was 0.397 ± 0.059%. The “% SURVIVAL” value (U251 cells; 0.3 mM POH + 5.5 Gy) was 0.046 ± 0.005%, the “% SURVIVAL” value (U251 cells; 0.5 mM POH 72 h, no radiation) was 0.257 ± 0.010% and the “% SURVIVAL” value (U251 cells; 0.5 mM POH + 5.5 Gy) was 0.019 ± 0.001%. The “% SURVIVAL” value (DLD-1 colon cancer cells; 0.1 mM POH 72 h, no radiation) was 1.690 ± 0.100%, the “% SURVIVAL” value (DLD-1 colon cancer cells; 0.1 mM POH + 5.5 Gy) was 0.038 ± 0.009% and the “% SURVIVAL” value (DLD-1 colon cancer cells; 0.3 mM POH 72 h, no radiation) was 0.899 ± 0.070%. The “% SURVIVAL” value (DLD-1 colon cancer cells; 0.3 mM POH + 5.5 Gy) was 0.050 ± 0.003%, the “% SURVIVAL” value (DLD-1 colon cancer cells; 0.5 mM POH 72 h, no radiation) was 0.019 ± 0.001% and the “% SURVIVAL” value (DLD-1 colon cancer cells; 0.5 mM POH + 5.5 Gy) was 0.001 ± 0.001%. For the same compound, the “levels of the Fas receptor” value (Fas receptor) was “did not alter”, the “sensitization to Fas mediated apoptosis” value [1] was “sensitized” and the “function of Fas Ligand on treated T98G towards Jurkat cells” value [2] was “brought about cell death”. For the same compound, the “potency at inducing tumor regression relative to limonene” value (rat mammary carcinoma; dietary) was “greater than five times more potent than limonene”, the “regression of rat mammary carcinoma” value (rat mammary carcinoma; induced by DMBA) was 84% and the “regression of rat mammary carcinoma” value (rat mammary carcinoma; induced by NMU) was 60%. The “plasma levels of terpene metabolites” value [3] was 820 µM.
